From PubChem BioAssay (NCI)
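All cell lines were grown in 96-well plates and treated with compound for 48 hours. Abbreviation: GI50, concentration required for 50% inhibition of growth. At the TGI there is no net growth.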 *1 amine or outer side, *2 acyl side, *3 side chain or, on linkers, in order; H or OH if unused. Where a SMILES comes first, the peptide text is derived from it. Bridges are numbered along the chain shown (N, C = ends). Roman numbers before positions name the chains, in order. [ ]: non-standard residue; d: D form. Actinocin(9to1) = Cc1c2oc3c(C)ccc(C(=O)[*:1])c3nc-2c(C(=O)[*:2])c(N)c1=O; Hyp = O=C(O)[CH]1C[CH](O)CN1; NMeV = CN[CH](C(=O)O)C(C)C; Sar = CNCC(=O)O

Columns and labels:
Assay in all cases: NCI tumour cell line growth inhibition, 48 h
HCC-2998 colon = tested on: HCC-2998 colon
K-562 leukemia = tested on: K-562 leukemia
LOX IMVI melanoma = tested on: LOX IMVI melanoma
NCI-H522 lung = tested on: NCI-H522 lung
OVCAR-5 ovarian = tested on: OVCAR-5 ovarian
OVCAR-8 ovarian = tested on: OVCAR-8 ovarian
PC-3 prostate = tested on: PC-3 prostate
SF-539 CNS = tested on: SF-539 CNS
SNB-75 CNS = tested on: SNB-75 CNS
SW-620 colon = tested on: SW-620 colon

| Structure (SMILES) | TGI (HCC-2998 colon) [µM] | TGI (K-562 leukemia) [µM] | TGI (LOX IMVI melanoma) [µM] | TGI (NCI-H522 lung) [µM] | TGI (OVCAR-5 ovarian) [µM] | TGI (OVCAR-8 ovarian) [µM] | TGI (PC-3 prostate) [µM] | TGI (SF-539 CNS) [µM] | TGI (SNB-75 CNS) [µM] | TGI (SW-620 colon) [µM] | GI50 (HCC-2998 colon) [µM] | GI50 (K-562 leukemia) [µM] | GI50 (LOX IMVI melanoma) [µM] | GI50 (NCI-H522 lung) [µM] | GI50 (OVCAR-5 ovarian) [µM] | GI50 (OVCAR-8 ovarian) [µM] | GI50 (PC-3 prostate) [µM] | GI50 (SF-539 CNS) [µM] | GI50 (SNB-75 CNS) [µM] | GI50 (SW-620 colon) [µM] |
| --- | --- | --- | --- | --- | --- | --- | --- | --- | --- | --- | --- | --- | --- | --- | --- | --- | --- | --- | --- | --- |
| COC1=C(C)C(=O)C2=C(C1=O)C1C3CC4=C(C(=O)C(OC)=C(C)C4=O)C(CNC(=O)C(C)O)N3C(C#N)C(C2)N1C (stereo not drawn) | < 0.0272 | 1.48 | 0.0263 | < 0.01 | 0.0888 | 1.32 | 1.74 | < 0.0117 | 0.0171 | 0.235 | – | – | – | – | – | – | – | – | – | – |
| Cc1cc(OCCOCCC(F)(F)P(=O)(O)O)ccc1CCc1cnc2c(N)nc3cc(CCC(=O)O)ccc3c2c1 | > 100 | > 100 | > 100 | > 100 | > 100 | > 100 | > 100 | > 100 | > 100 | > 100 | > 100 | > 100 | > 100 | > 100 | > 100 | > 100 | > 100 | > 100 | 14 | > 100 |
| Cc1cc2c(c(S(=O)(=O)c3ccccc3[N+](=O)[O-])c1)NCCC2 | > 100 | – | > 100 | > 100 | > 100 | > 100 | > 100 | > 100 | > 100 | > 100 | – | – | – | – | – | – | – | – | – | – |
| S=c1nc(N/N=C/c2cccs2)c2cn[nH]c2[nH]1 | 27.8 | > 100 | 74.6 | 76.8 | 49.5 | > 100 | 37.5 | > 100 | > 100 | > 100 | – | – | – | – | – | – | – | – | – | – |
| Cc1c(C)c(C)c(-n2c(=O)n(C)c(=O)n2-c2cc(C(C)(C)C)cc(C(C)(C)C)c2O)c(C)c1C | 24.6 | 27.2 | 26.8 | 14.6 | 26.9 | 22.7 | 12 | 24.3 | 16.9 | 28.4 | – | – | – | – | – | – | – | – | – | – |
| COC1=C(Cl)C(=O)c2c(O)ccc(O)c2C1=O | 27.3 | – | 3.63 | 0.564 | 7.49 | 4.78 | 9.17 | 1.53 | 17.1 | 0.46 | – | – | – | – | – | – | – | – | – | – |
| CCOC1NC(=O)Oc2cc3ccccc3cc21 (stereo not drawn) | > 100 | > 100 | > 100 | > 100 | > 100 | > 100 | > 100 | > 100 | > 100 | > 100 | – | – | – | – | – | – | – | – | – | – |
| Nc1ccc2ccc(N3CCNCC3)nc2n1 | > 100 | > 100 | > 100 | > 100 | > 100 | > 100 | > 100 | > 100 | > 100 | > 100 | – | – | – | – | – | – | – | – | – | – |
| O=C(O)c1c2c(cc3c1CC1(Cc4cc5c(cc4C1=O)CCC5)C3)CCC2 (stereo not drawn) | > 100 | > 100 | > 100 | > 100 | > 100 | > 100 | > 100 | > 100 | > 100 | > 100 | – | – | – | – | – | – | – | – | – | – |
| Cc1c2oc3c(C)ccc(C(=O)NC4C(=O)NC(C(C)C)C(=O)N5CC(O)CC5C(=O)N(C)CC(=O)N(C)C(C(C)C)C(=O)OC4C)c3nc-2c(C(=O)NC2C(=O)NC(C(C)C)C(=O)N3CC(O)CC3C(=O)N(C)CC(=O)N(C)C(C(C)C)C(=O)OC2C)c(N)c1=O (stereo not drawn) (I: TV[Hyp][Sar][NMeV] / II: TV[Hyp][Sar][NMeV]; ester I:1-I:C, II:1-II:C; linker I:N-II:N via Actinocin(9to1); configuration not given here) | > 1 | > 1 | > 1 | > 1 | > 1 | > 1 | > 1 | > 1 | > 1 | > 1 | – | – | – | – | – | – | – | – | – | – |
| CC(C)(C)NC(=O)/C(=C\Sc1ccccc1)c1ccccc1 | > 100 | > 100 | > 79.4 | > 52.1 | > 100 | > 100 | > 100 | > 100 | > 100 | > 100 | – | – | – | – | – | – | – | – | – | – |
| O=c1[nH]nc(Cc2ccccc2)n1/N=C/c1cccnc1 | > 100 | > 100 | > 100 | > 100 | > 100 | > 100 | > 100 | > 100 | > 100 | > 100 | – | – | – | – | – | – | – | – | – | – |
| NC(=O)CC(N)C(=O)NC(Cc1ccccc1)C(=O)NC(Cc1ccccc1)NC(=O)C(Cc1c[nH]c2ccccc12)C(=O)O (stereo not drawn) | > 100 | > 100 | > 100 | > 100 | > 100 | > 100 | > 100 | > 100 | > 100 | > 100 | – | – | – | – | – | – | – | – | – | – |
| O=C(N/N=C\c1cccc2ccccc12)Nc1cccc2ccccc12 | > 100 | 15.6 | > 100 | > 100 | > 100 | > 100 | > 100 | 42.1 | 35.2 | > 100 | – | – | – | – | – | – | – | – | – | – |
| O[C@@H]1CCC[C@@H]2NC[C@@H](c3ccc4c(c3)OCO4)[C@H]12 | > 100 | > 100 | > 100 | > 100 | > 100 | > 100 | > 100 | > 100 | > 100 | > 100 | – | – | – | – | – | – | – | – | – | – |
| c1ccc(Nc2nn3c(CCCCCCCCc4nnc5sc(Nc6ccccc6)nn45)nnc3s2)cc1 | > 100 | 37.6 | > 100 | 81.2 | > 100 | > 100 | > 100 | > 100 | 75.5 | > 100 | – | – | – | – | – | – | – | – | – | – |
| O=c1[nH]c2nccn2c2c1SCCN2 | > 100 | > 100 | > 100 | > 100 | > 100 | > 100 | > 100 | > 100 | > 100 | > 100 | – | – | – | – | – | – | – | – | – | – |
